Measured values reported in publication PMC4689772, “The Effect of Excipients on the Permeability of BCS Class III Compounds and Implications for Biowaivers” (Pharmaceutical Research, 2015).
Each block holds one molecule with its values, some of them ahead of it.

Assays:
[1] = Bidirectional permeability across Caco-2 cell monolayers (no excipients); conditions: human; for recovery: Caco-2, no excipients, cassette, mean ± SD, n = 3
[2] = in vitro; conditions: Caco-2
[3] = in vivo; conditions: Sprague-Dawley, rat, pH 6.8, Effective permeability coefficient (Peff), rat jejunum, mean ± SEM, n = 4
[4] = Recirculating in situ rat intestinal perfusion (jejunum) in presence and absence of excipients; conditions: Sprague-Dawley, pH 6.8, Effective permeability coefficient (Peff), mean ± SEM, n = 4
[5] = Unidirectional (A→B) permeability across Caco-2 cell monolayers in presence and absence of excipients; conditions: human, Caco-2, Apparent permeability coefficient (Papp), mean ± SEM, n = 4

- recovery ([1]; Caco-2, A→B Recovery): 82.2 ± 8.6%
- recovery ([1]; Caco-2, B→A Recovery): 94.9 ± 12.2%
- Papp A→B [2]: 29.8 ± 1.8 ×10⁻⁶ cm/s
Structure (SMILES): Nc1nc2c(ncn2COCCO)c(=O)[nH]1 [Acyclovir, acyclovir]

- Papp at 90 min ([3]; Control (no excipient)): 143 ± 17 ×10⁻⁶ cm/s
- Papp at 90 min ([3]; HPMC 0.06 mg/ml): 168 ± 35 ×10⁻⁶ cm/s
- Papp at 90 min ([3]; PEG 400 0.06 mg/ml): 117 ± 22 ×10⁻⁶ cm/s
- Papp at 90 min ([3]; PEG 400 0.30 mg/ml (first run)): 82 ± 15 ×10⁻⁶ cm/s
- Papp at 90 min ([3]; PEG 400 0.30 mg/ml, second run): 153 ± 18 ×10⁻⁶ cm/s
- Papp at 90 min ([3]; PEG 400 […]): 90 ± 26 ×10⁻⁶ cm/s
- Papp at 90 min ([3]; Povidone 0.06 mg/ml): 133 ± 42 ×10⁻⁶ cm/s
- Papp at 90 min ([3]; SLS 0.01 mg/ml): 175 ± 23 ×10⁻⁶ cm/s
- Papp at 90 min ([3]; SLS 0.02 mg/ml): 93 ± 26 ×10⁻⁶ cm/s
- Papp at 90 min ([3]; SLS 0.04 mg/ml): 108 ± 18 ×10⁻⁶ cm/s
- Papp at 90 min ([3]; SLS […]): 157 ± 46 ×10⁻⁶ cm/s
Structure (SMILES): Cc1cc(=O)n(-c2ccccc2)n1C [Antipyrine, antipyrine]

- Papp at 90 min ([4]; other: closed-loop recirculating in situ jejunal perfusion, HPMC 0.06 mg/ml): 40 ± 7 ×10⁻⁶ cm/s
- Papp at 90 min ([4]; other: closed-loop recirculating in situ jejunal perfusion, HPMC […]): 7 ± 17 ×10⁻⁶ cm/s
- Papp at 90 min ([4]; other: closed-loop recirculating in situ jejunal perfusion, PEG 400 0.06 mg/ml): 24 ± 8 ×10⁻⁶ cm/s
- Papp at 90 min ([4]; other: closed-loop recirculating in situ jejunal perfusion, PEG 400 0.30 mg/ml (first run)): 1 ± 1 ×10⁻⁶ cm/s
- Papp at 90 min ([4]; other: closed-loop recirculating in situ jejunal perfusion, PEG 400 […]): 25 ± 8 ×10⁻⁶ cm/s
- Papp at 90 min ([4]; other: closed-loop recirculating in situ jejunal perfusion, SLS 0.01 mg/ml): 32 ± 15 ×10⁻⁶ cm/s
- Papp at 90 min ([4]; other: closed-loop recirculating in situ jejunal perfusion, SLS 0.02 mg/ml): 37 ± 10 ×10⁻⁶ cm/s
- Papp at 90 min ([4]; other: closed-loop recirculating in situ jejunal perfusion, SLS 0.04 mg/ml): 1 ± 2 ×10⁻⁶ cm/s
- Papp at 90 min ([4]; Povidone […]): 13 ± 1.5 ×10⁻⁶ cm/s
- Papp A→B ([5]; Control a (no excipient)): 0.21 ± 0.06 ×10⁻⁶ cm/s
- Papp A→B ([5]; Control b (no excipient)): 0.21 ± 0.04 ×10⁻⁶ cm/s
- Papp A→B ([5]; D-Lactose 1.0 mg/ml (control set b)): 0.14 ± 0.05 ×10⁻⁶ cm/s
- Papp A→B ([5]; D-Lactose 2.0 mg/ml (control set b)): 0.13 ± 0.01 ×10⁻⁶ cm/s
- Papp A→B ([5]; HPMC 0.06 mg/ml (control set a)): 0.14 ± 0.05 ×10⁻⁶ cm/s
- Papp A→B ([5]; HPMC 1.0 mg/ml (control set b)): 0.13 ± 0.05 ×10⁻⁶ cm/s
- Papp A→B ([5]; HPMC 2.0 mg/ml (control set b)): 0.11 ± 0.02 ×10⁻⁶ cm/s
- Papp A→B ([5]; PEG 400 0.06 mg/ml (control set a)): 0.13 ± 0.01 ×10⁻⁶ cm/s
- Papp A→B ([5]; PEG 400 […] (control set a)): 0.14 ± 0.04 ×10⁻⁶ cm/s
- Papp A→B ([5]; PEG 400 […] (control set b)): 0.27 ± 0.04 ×10⁻⁶ cm/s
- Papp A→B ([5]; Povidone 0.06 mg/ml (control set a)): 0.09 ± 0.02 ×10⁻⁶ cm/s
- Papp A→B ([5]; Povidone 0.2 mg/ml (control set b)): 0.15 ± 0.05 ×10⁻⁶ cm/s
- Papp A→B ([5]; SLS 0.01 mg/ml (control set a)): 0.23 ± 0.07 ×10⁻⁶ cm/s
- Papp A→B ([5]; SLS 0.02 mg/ml (control set a)): 0.31 ± 0.05 ×10⁻⁶ cm/s
- Papp A→B ([5]; SLS 0.04 mg/ml (control set a)): 0.31 ± 0.1 ×10⁻⁶ cm/s
- Papp A→B ([1]; Caco-2): 0.29 ± 0.16 ×10⁻⁶ cm/s
- Papp B→A ([1]; Caco-2): 0.71 ± 0.15 ×10⁻⁶ cm/s
- recovery ([1]; Caco-2, A→B Recovery): 83.9 ± 9.1%
- recovery ([1]; Caco-2, B→A Recovery): 90.7 ± 12.2%
- Papp A→B [2]: 33 ± 0.7 ×10⁻⁶ cm/s
Structure (SMILES): CC(C)(C)NCC(O)COc1cccc2c1CC(O)C(O)C2 (stereo not shown) [Nadolol, nadolol]
